From US20050267054A1, “Antibacterial compounds with improved pharmacokinetic profiles” (priority 2002, published 2005)
Like-named read-outs stand apart in the source and are kept apart here.

Assay: Pharmacokinetic profile, cassette dosing protocol in dog (IV and PO)
Assay type: in vivo
Settings: male beagle dogs, 1 mg/kg; for AUC / clearance / half-life / Cmax / Tmax / Vd: dog, plasma; for clearance: read-out: CLp (IV) plasma clearance (converted); for Vd: male, beagle, iv
Experimental: The pharmacokinetic profiles of EXAMPLE 20, EXAMPLE 22, EXAMPLE 29 and EXAMPLE 31 were evaluated using cassette dosing protocols in dog. The cassette dosing protocol in dogs combined three test compounds with the reference compound (EXAMPLE 104 of commonly-owned U.S. Pat. No. 5,866,549), each at a dose of 1 mg/kg. The compounds for each cassette were formulated as a solution in an aqueous vehicle containing 10% ethanol and one equivalent hydrochloric acid. Groups of three male beagle dogs received either an intravenous dose (IV) or an oral dose (PO). Sequential blood samples were taken from each animal for 24 hours after dosing. The plasma concentrations of the test compound and reference compounds were simultaneously determined using HPLC-MS/MS following liquid-liquid extraction of the samples. The results are shown in TABLE 2, in which CLp is plasma clearance; T1/2 and Tmax are expressed in hours; Cmax is expressed in μg/mL; AUC is expressed in μg·h/mL; F is percent bioavaibility; and Vc and Vb (volumes of distibution) are expressed in L/Kg.

[1] = intravenous dose, read-out: AUC (IV)
[2] = intravenous dose, read-out: T1/2 (IV) (converted)
[3] = oral dose, read-out: T1/2 (PO) (converted)
[4] = intravenous dose, read-out: Vb (IV) volume of distribution
[5] = intravenous dose, read-out: Vc (IV) volume of distribution

| SMILES | AUC [1] | clearance (intravenous dose) | half-life [2] | Cmax (oral dose) | Tmax (oral dose) | AUC (oral dose, read-out: AUC (PO)) | half-life [3] | F (PO) percent bioavaibility (oral dose) | Vd [4] | Vd [5] |
| --- | --- | --- | --- | --- | --- | --- | --- | --- | --- | --- |
| CC[C@H]1OC(=O)[C@@](C)(F)C(=O)[C@H](C)[C@@H](O[C@@H]2O[C@H](C)C[C@H](N(C)C)[C@H]2O)C(C)(OCC#Cc2ccc(-c3nnn(C)n3)s2)C[C@@H](C)C(=O)[C@H](C)[C@H]2NC(=O)O[C@@]21C (stereo in doubt) [EXAMPLE 20, (3aS,4R,7S,9R,10R,11S,13R,15R,15aR)-4-ethyl-7-fluoro-3a,7,9,11,13,15-hexamethyl-11-((3-(5-(2-methyl-2H-tetraazol-5-yl)thien-2-yl)prop-2-ynyl)oxy)-2,6,8,14-tetraoxotetradecahydro-2H-oxacyclotetradecino(4,3-d) (1,3)-oxazol-10-yl 3,4,6-trideoxy-3-(dimethylamino)-β-D-xylo-hexopyranoside] | 7290 ng·h/mL | 2.67 mL/min/kg | 14.4 h | 250 ng/mL | 2 h | 5140 ng·h/mL | 11.1 h | 73.60% | 3.1 L/kg | 1.6 L/kg |
| CC[C@H]1OC(=O)[C@H](C)C(=O)[C@H](C)[C@@H](O[C@@H]2O[C@H](C)C[C@H](N(C)C)[C@H]2O)C(C)(OC/C=C/c2ccc(-c3nnn(C)n3)s2)C[C@@H](C)C(=O)[C@H](C)[C@H]2NC(=O)O[C@@]21C (stereo in doubt) [EXAMPLE 22, (3aS,4R,7R,9R,10R,11S,13R,15R,15aR)-4-ethyl-3a,7,9,11,13,15-hexamethyl-11-(((2E)-3-(5-(2-methyl-2H-tetraazol-5-yl)thien-2-yl)prop-2-enyl)oxy)-2,6,8,14-tetraoxotetradecahydro-2H-oxacyclotetradecino(4,3-d) (1,3)-oxazol-10-yl 3,4,6-trideoxy-3-(dimethylamino)-β-D-xylo-hexopyranoside] | 11500 ng·h/mL | 1.5 mL/min/kg | 8.4 h | 490 ng/mL | 1.5 h | 6770 ng·h/mL | 7.8 h | 63.00% | 1.1 L/kg | 0.9 L/kg |
| CC[C@H]1OC(=O)[C@H](C)C(=O)[C@H](C)[C@@H](O[C@@H]2O[C@H](C)C[C@H](N(C)C)[C@H]2O)C(C)(OCC#Cc2ccc(-c3nnn(C)n3)s2)C[C@@H](C)C(=O)[C@H](C)[C@H]2NC(=O)O[C@@]21C (stereo in doubt) [EXAMPLE 29, (3aS,4R,7R,9R,10R,11S,13R,15R,15aR)-4-ethyl-3a,7,9,11,13,15-hexamethyl-11-((3-(5-(2-methyl-2H-tetraazol-5-yl)thien-2-yl)prop-2-ynyl)oxy)-2,6,8,14-tetraoxotetradecahydro-2H-oxacyclotetradecino(4,3-d) (1,3)-oxazol-10-yl 3,4,6-trideoxy-3-(dimethylamino)-β-D-xylo-hexopyranoside] | – | – | – | – | – | – | – | 80.30% | 1.2 L/kg | 0.9 L/kg |
| CC[C@H]1OC(=O)[C@@](C)(F)C(=O)[C@H](C)[C@@H](O[C@@H]2O[C@H](C)C[C@H](N(C)C)[C@H]2O)C(C)(OC/C=C/c2ccc(-c3nnn(C)n3)s2)C[C@@H](C)C(=O)[C@H](C)[C@H]2NC(=O)O[C@@]21C (stereo in doubt) [EXAMPLE 31, (3aS,4R,7S,9R,10R,11S,13R,15R,15aR)-4-ethyl-7-fluoro-3a,7,9,11,13,15-hexamethyl-11-(((2E)-3-(5-(2-methyl-2H-tetraazol-5-yl)thien-2-yl)prop-2-enyl)oxy)-2,6,8,14-tetraoxotetradecahydro-2H-oxacyclotetradecino(4,3-d) (1,3)-oxazol-10-yl 3,4,6-trideoxy-3-(dimethylamino)-β-D-xylo-hexopyranoside] | 16100 ng·h/mL | 1.17 mL/min/kg | 22.9 h | 480 ng/mL | 4.5 h | 12600 ng·h/mL | 17.2 h | 81.10% | 2.3 L/kg | 1.1 L/kg |
